Experimental data: ChEMBL document CHEMBL5380843 (J Med Chem, 2023)

How the values were obtained:
[1] = target: Human immunodeficiency virus type 1 reverse transcriptase (Human immunodeficiency virus 1, UniProt Q72547); test: Inhibition of recombinant wild type HIV-1 reverse transcriptase using DNA/RNA as substrate incubated for 40 mins by Pico-green dye based spectrofluorometric analysis
[2] = Resistant factor, ratio of EC50 for antiviral activity against HIV-1 IIIB harboring reverse transcriptase E138K mutant to EC50 for antiviral activity against wild type HIV-1 IIIB; type: functional
[3] = Resistant factor, ratio of EC50 for antiviral activity against HIV-1 IIIB harboring reverse transcriptase K103N mutant to EC50 for antiviral activity against wild type HIV-1 IIIB; type: functional
[4] = Resistant factor, ratio of EC50 for antiviral activity against HIV-1 IIIB harboring reverse transcriptase Y181C mutant to EC50 for antiviral activity against wild type HIV-1 IIIB; type: functional
[5] = tested on: Human immunodeficiency virus 1; test: Antiviral activity against wild type HIV-1 IIIB infected in human MT4 cells assessed as protection against virus-induced cytopathic effect incubated for 5 days by MTT assay; type: functional, organism-based; conditions: Human immunodeficiency virus 1, IIIB, MT4, 120 h
[6] = tested on: Human immunodeficiency virus 1; test: Antiviral activity against wild type HIV-1 IIIB harboring reverse transcriptase Y188L mutant infected in human MT4 cells assessed as protection against virus-induced cytopathic effect incubated for 5 days by MTT assay; type: functional, organism-based; conditions: Human immunodeficiency virus 1, IIIB, MT4, 120 h
[7] = tested on: Human immunodeficiency virus 1; test: Antiviral activity against wild type HIV-1 IIIB harboring reverse transcriptase Y181C mutant infected in human MT4 cells assessed as protection against virus-induced cytopathic effect incubated for 5 days by MTT assay; type: functional, organism-based; conditions: Human immunodeficiency virus 1, IIIB, MT4, 120 h
[8] = Cytotoxicity against human MT4 cells assessed as reduction in cell viability incubated for 5 days by MTT assay; type: toxicity, cell-based; conditions: time 5 day
[9] = tested on: Human immunodeficiency virus 1; test: Antiviral activity against wild type HIV-1 IIIB harboring reverse transcriptase K103N mutant infected in human MT4 cells assessed as protection against virus-induced cytopathic effect incubated for 5 days by MTT assay; type: functional, organism-based; conditions: Human immunodeficiency virus 1, IIIB, MT4, 120 h
[10] = Resistant factor, ratio of EC50 for antiviral activity against HIV-1 IIIB harboring reverse transcriptase Y188L mutant to EC50 for antiviral activity against wild type HIV-1 IIIB; type: functional
[11] = Selectivity index, ratio of CC50 for cytotoxicity against human MT4 cells to EC50 for antiviral activity against wild type HIV-1 IIIB infected in human MT4 cells; type: toxicity, cell-based; conditions: read-out: Ratio CC50/EC50
[12] = tested on: Human immunodeficiency virus 1; test: Antiviral activity against wild type HIV-1 IIIB harboring reverse transcriptase E138K mutant infected in human MT4 cells assessed as protection against virus-induced cytopathic effect incubated for 5 days by MTT assay; type: functional, organism-based; conditions: Human immunodeficiency virus 1, IIIB, MT4, 120 h
[13] = Resistant factor, ratio of EC50 for antiviral activity against HIV-1 IIIB harboring reverse transcriptase […] mutant to EC50 for antiviral activity against wild type HIV-1 IIIB; type: functional
[14] = tested on: Human immunodeficiency virus 1; test: Antiviral activity against wild type HIV-1 IIIB harboring reverse transcriptase […] mutant infected in human MT4 cells assessed as protection against virus-induced cytopathic effect incubated for 5 days by MTT assay; type: functional, organism-based; conditions: Human immunodeficiency virus 1, IIIB, MT4, 120 h
Cytochrome P450 2C19 = Cytochrome P450 2C19 (Homo sapiens, UniProt P33261); test: Inhibition of CYP2C19 in human liver microsomes using S-mephenytoin as substrate incubated for 15 to 45 mins in presence of NADPH; type: ADME, Microsome
Chain of Cytochrome P450 2C19 (P33261 whole entry): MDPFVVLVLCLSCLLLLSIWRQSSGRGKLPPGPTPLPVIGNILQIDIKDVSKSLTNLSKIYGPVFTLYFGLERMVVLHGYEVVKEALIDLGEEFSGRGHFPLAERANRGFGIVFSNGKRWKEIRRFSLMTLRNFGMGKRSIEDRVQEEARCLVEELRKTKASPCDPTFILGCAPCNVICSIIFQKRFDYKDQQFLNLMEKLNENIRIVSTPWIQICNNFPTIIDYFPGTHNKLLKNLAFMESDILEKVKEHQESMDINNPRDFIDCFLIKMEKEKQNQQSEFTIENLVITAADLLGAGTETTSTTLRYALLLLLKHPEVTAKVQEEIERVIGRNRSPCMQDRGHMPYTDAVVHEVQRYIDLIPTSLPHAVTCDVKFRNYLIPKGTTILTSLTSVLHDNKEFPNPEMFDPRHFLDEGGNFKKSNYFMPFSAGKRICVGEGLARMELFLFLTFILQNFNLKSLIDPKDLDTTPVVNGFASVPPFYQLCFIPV

| Structure (SMILES) | IC50 [1] [nM] | Ratio EC50 [2] | Ratio EC50 [3] | Ratio EC50 [4] | EC50 [5] [nM] | EC50 [6] [nM] | EC50 [7] [nM] | CC50 at 120 h [8] [nM] | EC50 [9] [nM] | Ratio EC50 [10] | selectivity ratio [11] | EC50 [12] [nM] | Ratio EC50 [13] | EC50 [14] [nM] | IC50 (Cytochrome P450 2C19) [nM] |
| --- | --- | --- | --- | --- | --- | --- | --- | --- | --- | --- | --- | --- | --- | --- | --- |
| Cc1cc(-c2ccc(C#N)cc2)cc(C)c1Oc1nc(Nc2ccc(C#N)cc2)ncc1C(=O)NCCO | 55 | 1.8 | 1.8 | 8.8 | 3 | 44 | 29 | > 39600 | 6 | 13 | > 11900 | 6 | 3.9 | 13 |  |
| CCONC(=O)c1cnc(Nc2ccc(C#N)cc2)nc1Oc1c(C)cc(-c2ccc(C#N)cc2)cc1C | 94 | 1.3 | 2.1 | 8.2 | 5 | 138 | 46 | > 248000 | 12 | 25 | > 44200 | 7 | 6.1 | 34 |  |
| COCCNC(=O)c1cnc(Nc2ccc(C#N)cc2)nc1Oc1c(C)cc(-c2ccc(C#N)cc2)cc1C | 128 | 3.5 | 5.8 | 10 | 5 | 190 | 58 | 161000 | 33 | 33 | 28100 | 20 | 13 | 74 |  |
| C#CCNC(=O)c1cnc(Nc2ccc(C#N)cc2)nc1Oc1c(C)cc(-c2ccc(C#N)cc2)cc1C | 72 | 2.3 | 1.6 | 5.5 | 5 | 59 | 31 | 145000 | 9 | 11 | 25700 | 13 | 2.9 | 16 |  |
| Cc1cc(-c2ccc(C#N)cc2)cc(C)c1Oc1nc(Nc2ccc(C#N)cc2)ncc1C(=O)NC1CCCCC1 | 329 | 4.7 | 7.6 | 26 | 174 | 5140 | 4460 | > 230000 | 1330 | 30 | > 1320 | 817 | 9.7 | 1680 |  |
| C=C(C)[C@@H]1CCC2=CC(=O)C[C@@H](C)[C@]2(C)C1 [NOOTKATONE] |  |  |  |  |  |  |  |  |  |  |  |  |  |  | 1570 |
